According to ChEMBL document CHEMBL1201862, “PubChem BioAssay data set” (2004):
Values belong to the molecule of their own block, whether it stands above or below them. Calls of active or inactive are those of the source.

Columns and labels:
[1] = molecular target: T1, Dual specificity protein phosphatase 6 (Rattus norvegicus, UniProt Q64346)
T1 sequence (Q64346 whole entry): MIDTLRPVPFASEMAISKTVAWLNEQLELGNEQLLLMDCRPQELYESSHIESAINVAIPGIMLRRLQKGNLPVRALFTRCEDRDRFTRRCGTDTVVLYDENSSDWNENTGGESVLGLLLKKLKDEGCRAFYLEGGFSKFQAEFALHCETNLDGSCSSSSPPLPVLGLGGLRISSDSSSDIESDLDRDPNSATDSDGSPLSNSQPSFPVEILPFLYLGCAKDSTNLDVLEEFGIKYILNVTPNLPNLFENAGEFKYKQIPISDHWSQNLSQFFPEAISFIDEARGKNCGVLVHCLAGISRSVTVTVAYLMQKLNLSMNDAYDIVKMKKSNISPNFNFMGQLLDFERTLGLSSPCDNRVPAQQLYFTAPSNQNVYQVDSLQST

[2] = molecular target: T2, Tyrosine-protein phosphatase non-receptor type 7 (Homo sapiens, UniProt P35236); type: functional
T2 sequence (P35236 whole entry): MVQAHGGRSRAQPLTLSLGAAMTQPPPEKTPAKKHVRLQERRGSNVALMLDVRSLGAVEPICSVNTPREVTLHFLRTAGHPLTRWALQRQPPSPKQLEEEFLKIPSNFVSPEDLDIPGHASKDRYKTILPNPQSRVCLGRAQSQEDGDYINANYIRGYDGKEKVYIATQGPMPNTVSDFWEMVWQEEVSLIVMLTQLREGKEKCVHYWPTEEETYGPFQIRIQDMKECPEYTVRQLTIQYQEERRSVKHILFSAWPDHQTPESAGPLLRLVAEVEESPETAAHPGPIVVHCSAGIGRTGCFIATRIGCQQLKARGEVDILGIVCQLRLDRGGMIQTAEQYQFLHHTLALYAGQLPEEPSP

[3] = molecular target: T1, Dual specificity protein phosphatase 6; type: functional
[4] = molecular target: Glyceraldehyde-3-phosphate dehydrogenase (Homo sapiens, UniProt P04406)
SUMO-activating enzyme [5] = molecular target: T3, SUMO-activating enzyme (Homo sapiens, UniProt Q9UBT2); assay: inhibitors of in vitro SUMOylation cascade, primary screen, biochemical, HTRF, uHTS (AID 2006); type: protein-complex assay
[6] = molecular target: T4, Alkaline phosphatase, tissue-nonspecific isozyme (Homo sapiens, UniProt P05186); assay: TNAP enzyme inhibition by screening hits, dose response, selectivity assay for mouse IAP inhibitor project, biochemical, human TNAP, uHTS hits (AID 488906); type: functional
T4 sequence (P05186 whole entry): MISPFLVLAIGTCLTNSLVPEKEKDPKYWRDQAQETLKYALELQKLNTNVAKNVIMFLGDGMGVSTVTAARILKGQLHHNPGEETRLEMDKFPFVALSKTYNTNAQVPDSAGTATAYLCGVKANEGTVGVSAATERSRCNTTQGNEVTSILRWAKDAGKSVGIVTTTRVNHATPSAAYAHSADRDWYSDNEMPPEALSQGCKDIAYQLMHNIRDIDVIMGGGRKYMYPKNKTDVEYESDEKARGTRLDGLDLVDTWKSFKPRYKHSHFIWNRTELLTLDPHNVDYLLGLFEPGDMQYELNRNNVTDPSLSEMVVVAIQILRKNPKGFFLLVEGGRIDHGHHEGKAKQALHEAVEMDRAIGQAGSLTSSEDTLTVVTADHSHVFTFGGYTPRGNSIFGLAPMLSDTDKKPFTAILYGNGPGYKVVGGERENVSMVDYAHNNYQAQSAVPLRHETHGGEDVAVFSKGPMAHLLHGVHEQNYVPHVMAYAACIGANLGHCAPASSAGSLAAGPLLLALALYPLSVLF

[7] = molecular target: Intestinal-type alkaline phosphatase (Homo sapiens, UniProt P09923); assay: inhibition of human intestinal alkaline phosphatase – biochemical, dose response (AID 488876); type: functional
Large T antigen = Large T antigen (Simian virus 40, UniProt P03070); type: functional, Betapolyomavirus macacae;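 also: Confirmatory-stage PubChem screen for compounds that inhibit SV40 T antigen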
SUMO-activating enzyme [8] = molecular target: T3, SUMO-activating enzyme; assay: SUMOylation inhibitor hit validation, confirmation, SUMOylation inhibitor project, biochemical, AlphaScreen (AID 2018); type: functional
[9] = molecular target: Intestinal-type alkaline phosphatase (Mus musculus, UniProt P24822); assay: PubChem AID 488785; type: functional
[10] = HeLa cell cytotoxicity, dose response, cytotoxicity control for MgcRacGAP inhibitor project (AID 624300); type: functional
[11] = cytotoxicity in MIN6 insulinoma cells, dose response, cytotoxicity control, cell-based, mouse insulinoma (AID 2122); type: functional;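 also: confirmatory high-throughput counterscreen run to flag cytotoxic compounds; mouse MIN-6 beta cells carrying an insulin promoter eGFP reporter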
[12] = molecular target: T5, Rac GTPase-activating protein 1 (Homo sapiens, UniProt Q9H0H5); assay: MgcRacGAP GTPase-activating activity inhibitors, confirmation, biochemical, ADP Hunter fluorescence, primary and confirmatory (AID 624330); type: functional
T5 sequence (Q9H0H5 whole entry): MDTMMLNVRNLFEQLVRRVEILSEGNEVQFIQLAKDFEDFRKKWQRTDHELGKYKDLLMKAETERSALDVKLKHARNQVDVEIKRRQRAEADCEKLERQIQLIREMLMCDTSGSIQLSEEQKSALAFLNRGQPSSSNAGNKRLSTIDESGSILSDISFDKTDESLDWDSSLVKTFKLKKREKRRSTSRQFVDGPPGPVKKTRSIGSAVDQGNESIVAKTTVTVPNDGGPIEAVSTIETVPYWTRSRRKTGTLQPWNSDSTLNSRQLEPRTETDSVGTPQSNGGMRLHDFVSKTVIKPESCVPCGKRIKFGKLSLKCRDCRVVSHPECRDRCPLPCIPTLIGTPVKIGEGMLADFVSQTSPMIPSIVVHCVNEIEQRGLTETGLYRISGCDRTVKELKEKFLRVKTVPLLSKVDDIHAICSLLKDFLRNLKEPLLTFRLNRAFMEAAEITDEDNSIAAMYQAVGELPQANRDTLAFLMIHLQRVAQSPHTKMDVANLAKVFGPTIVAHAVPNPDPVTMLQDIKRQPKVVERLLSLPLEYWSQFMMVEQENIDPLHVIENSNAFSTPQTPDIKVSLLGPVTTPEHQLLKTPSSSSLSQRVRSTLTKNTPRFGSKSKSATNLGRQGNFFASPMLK

[13] = insulin promoter down-regulators in MIN6 cells, imaging, high-content screening, mouse beta cells (AID 1628); type: functional
[14] = molecular target: T6, Sentrin-specific protease 8 (Homo sapiens, UniProt Q96LD8); type: functional
T6 sequence (Q96LD8 whole entry): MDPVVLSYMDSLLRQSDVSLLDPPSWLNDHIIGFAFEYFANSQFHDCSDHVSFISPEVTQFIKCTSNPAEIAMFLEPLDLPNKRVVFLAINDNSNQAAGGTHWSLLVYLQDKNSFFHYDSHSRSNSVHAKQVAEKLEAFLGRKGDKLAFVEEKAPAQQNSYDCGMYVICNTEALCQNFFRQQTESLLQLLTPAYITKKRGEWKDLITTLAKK

[15] = molecular target: Tyrosyl-DNA phosphodiesterase 2 (Homo sapiens, UniProt O95551); assay: human TDP2 enzyme inhibitors, dose response, biochemical, epi absorbance, IC50 (AID 743297)
[16] = molecular target: T7, Zinc finger protein mex-5 (Caenorhabditis elegans, UniProt Q9XUB2); assay: MEX-5/TCR-2 RNA interaction inhibitors, dose response, biochemical, C. elegans, fluorescence polarization (AID 1960)
T7 sequence (Q9XUB2 whole entry): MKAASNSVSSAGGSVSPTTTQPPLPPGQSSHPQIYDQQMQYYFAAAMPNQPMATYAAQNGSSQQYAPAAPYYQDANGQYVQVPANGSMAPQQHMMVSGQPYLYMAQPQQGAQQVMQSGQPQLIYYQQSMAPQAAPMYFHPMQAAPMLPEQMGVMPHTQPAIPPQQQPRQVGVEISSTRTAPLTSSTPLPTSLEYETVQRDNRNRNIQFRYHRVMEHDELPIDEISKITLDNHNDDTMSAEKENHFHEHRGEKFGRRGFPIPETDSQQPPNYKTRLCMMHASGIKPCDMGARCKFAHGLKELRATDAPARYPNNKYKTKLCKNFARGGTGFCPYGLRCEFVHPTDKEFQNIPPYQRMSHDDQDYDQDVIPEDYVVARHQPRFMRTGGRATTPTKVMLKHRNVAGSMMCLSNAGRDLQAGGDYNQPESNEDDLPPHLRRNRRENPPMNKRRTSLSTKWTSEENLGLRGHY

[17] = molecular target: T8, RNA-binding protein pos-1 (Caenorhabditis elegans, UniProt G5EF15); assay: inhibitors of POS-1/mex-3 RNA binding, dose response, biochemical, fluorescence polarization (AID 1964);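 also: purified POS-1 fused to maltose binding protein made in E. coli; potency of compounds blocking POS-1 binding to fluorescent RNA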
T8 sequence (G5EF15 whole entry): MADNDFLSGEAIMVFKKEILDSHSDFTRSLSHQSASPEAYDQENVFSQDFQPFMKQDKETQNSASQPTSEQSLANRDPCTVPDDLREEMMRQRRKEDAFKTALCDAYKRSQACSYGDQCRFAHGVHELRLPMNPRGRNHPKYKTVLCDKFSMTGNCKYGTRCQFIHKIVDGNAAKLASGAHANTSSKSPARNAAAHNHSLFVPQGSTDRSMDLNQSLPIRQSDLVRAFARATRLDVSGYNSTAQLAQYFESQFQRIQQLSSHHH

[18] = molecular target: T6, Sentrin-specific protease 8; type: functional; remark: listed apart in the source
SUMO E1/E2 = SUMO E1/E2 (Homo sapiens, UniProt P63279+Q9UBE0+Q9UBT2); assay: SAR analysis of SUMOylation using HTRF in an in-Vitro dose response assay. [Related pubchem assays (depositor defined):AID2006, AID2011, AID2018, AID2069, AID2658]; type: functional
[19] = molecular target: Lysine-specific demethylase 4A (Homo sapiens, UniProt O75164); assay: JMJD2A histone demethylase inhibitors, dose response, selectivity assay for GASC-1 inhibitor project, biochemical, DELFIA europium, cherry-picked samples (AID 488840)
[20] = molecular target: Lysine-specific demethylase 4C (Homo sapiens, UniProt Q9H3R0); assay: GASC-1 (JMJD2C) histone demethylase inhibitors, dose response, biochemical, DELFIA europium, cherry-picked samples (AID 488835); type: functional
[21] = cytotoxicity in HEK-293T NF-kB-Luc cells, dose response, cytotoxicity control for B/T-cell NF-kB inhibitor project, cell-based, uHTS hits (AID 489019); type: functional;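 also: IC50 reflects cytotoxicity as loss of cell viability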
Jurkat = assay: antigen receptor-induced NF-kB inhibitors, dose response, Jurkat, luciferase reporter, luminescence, B- and T-cell (AID 489004); type: functional, cell-based; conditions: Homo sapiens;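 also: NF-kB luciferase reporter Jurkat cells stimulated with PMA plus ionomycin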
NS3 = NS3 (Hepatitis C virus, UniProt A3EZJ3); assay: PubChem AID 2173; design: species or system Hepacivirus hominis
[22] = Late-stage probe development counterscreen for inhibitors of the Hepatitis C Virus non-structural protein 3 helicase (NS3): luminescence-based cell-based dose response assay to determine whether compounds that inhibit replication of HCV RNA replicon are cytotoxic. [Related pubchem assays (depositor defined):AID1800, AID1830, AID1845, AID1943, AID1945, AID2172, AID2173, AID2474, AID2476]; type: functional
[23] = molecular target: Voltage-dependent T-type calcium channel subunit alpha-1H (Homo sapiens, UniProt O95180); assay: Cav3.2 T-type channel blockers, cell-based, SynthLib3 library, HEK293 Cav3.2, fluorescence (AID 493041); type: functional
Voltage-dependent T-type calcium channel subunit alpha-1H, sequence (O95180 whole entry): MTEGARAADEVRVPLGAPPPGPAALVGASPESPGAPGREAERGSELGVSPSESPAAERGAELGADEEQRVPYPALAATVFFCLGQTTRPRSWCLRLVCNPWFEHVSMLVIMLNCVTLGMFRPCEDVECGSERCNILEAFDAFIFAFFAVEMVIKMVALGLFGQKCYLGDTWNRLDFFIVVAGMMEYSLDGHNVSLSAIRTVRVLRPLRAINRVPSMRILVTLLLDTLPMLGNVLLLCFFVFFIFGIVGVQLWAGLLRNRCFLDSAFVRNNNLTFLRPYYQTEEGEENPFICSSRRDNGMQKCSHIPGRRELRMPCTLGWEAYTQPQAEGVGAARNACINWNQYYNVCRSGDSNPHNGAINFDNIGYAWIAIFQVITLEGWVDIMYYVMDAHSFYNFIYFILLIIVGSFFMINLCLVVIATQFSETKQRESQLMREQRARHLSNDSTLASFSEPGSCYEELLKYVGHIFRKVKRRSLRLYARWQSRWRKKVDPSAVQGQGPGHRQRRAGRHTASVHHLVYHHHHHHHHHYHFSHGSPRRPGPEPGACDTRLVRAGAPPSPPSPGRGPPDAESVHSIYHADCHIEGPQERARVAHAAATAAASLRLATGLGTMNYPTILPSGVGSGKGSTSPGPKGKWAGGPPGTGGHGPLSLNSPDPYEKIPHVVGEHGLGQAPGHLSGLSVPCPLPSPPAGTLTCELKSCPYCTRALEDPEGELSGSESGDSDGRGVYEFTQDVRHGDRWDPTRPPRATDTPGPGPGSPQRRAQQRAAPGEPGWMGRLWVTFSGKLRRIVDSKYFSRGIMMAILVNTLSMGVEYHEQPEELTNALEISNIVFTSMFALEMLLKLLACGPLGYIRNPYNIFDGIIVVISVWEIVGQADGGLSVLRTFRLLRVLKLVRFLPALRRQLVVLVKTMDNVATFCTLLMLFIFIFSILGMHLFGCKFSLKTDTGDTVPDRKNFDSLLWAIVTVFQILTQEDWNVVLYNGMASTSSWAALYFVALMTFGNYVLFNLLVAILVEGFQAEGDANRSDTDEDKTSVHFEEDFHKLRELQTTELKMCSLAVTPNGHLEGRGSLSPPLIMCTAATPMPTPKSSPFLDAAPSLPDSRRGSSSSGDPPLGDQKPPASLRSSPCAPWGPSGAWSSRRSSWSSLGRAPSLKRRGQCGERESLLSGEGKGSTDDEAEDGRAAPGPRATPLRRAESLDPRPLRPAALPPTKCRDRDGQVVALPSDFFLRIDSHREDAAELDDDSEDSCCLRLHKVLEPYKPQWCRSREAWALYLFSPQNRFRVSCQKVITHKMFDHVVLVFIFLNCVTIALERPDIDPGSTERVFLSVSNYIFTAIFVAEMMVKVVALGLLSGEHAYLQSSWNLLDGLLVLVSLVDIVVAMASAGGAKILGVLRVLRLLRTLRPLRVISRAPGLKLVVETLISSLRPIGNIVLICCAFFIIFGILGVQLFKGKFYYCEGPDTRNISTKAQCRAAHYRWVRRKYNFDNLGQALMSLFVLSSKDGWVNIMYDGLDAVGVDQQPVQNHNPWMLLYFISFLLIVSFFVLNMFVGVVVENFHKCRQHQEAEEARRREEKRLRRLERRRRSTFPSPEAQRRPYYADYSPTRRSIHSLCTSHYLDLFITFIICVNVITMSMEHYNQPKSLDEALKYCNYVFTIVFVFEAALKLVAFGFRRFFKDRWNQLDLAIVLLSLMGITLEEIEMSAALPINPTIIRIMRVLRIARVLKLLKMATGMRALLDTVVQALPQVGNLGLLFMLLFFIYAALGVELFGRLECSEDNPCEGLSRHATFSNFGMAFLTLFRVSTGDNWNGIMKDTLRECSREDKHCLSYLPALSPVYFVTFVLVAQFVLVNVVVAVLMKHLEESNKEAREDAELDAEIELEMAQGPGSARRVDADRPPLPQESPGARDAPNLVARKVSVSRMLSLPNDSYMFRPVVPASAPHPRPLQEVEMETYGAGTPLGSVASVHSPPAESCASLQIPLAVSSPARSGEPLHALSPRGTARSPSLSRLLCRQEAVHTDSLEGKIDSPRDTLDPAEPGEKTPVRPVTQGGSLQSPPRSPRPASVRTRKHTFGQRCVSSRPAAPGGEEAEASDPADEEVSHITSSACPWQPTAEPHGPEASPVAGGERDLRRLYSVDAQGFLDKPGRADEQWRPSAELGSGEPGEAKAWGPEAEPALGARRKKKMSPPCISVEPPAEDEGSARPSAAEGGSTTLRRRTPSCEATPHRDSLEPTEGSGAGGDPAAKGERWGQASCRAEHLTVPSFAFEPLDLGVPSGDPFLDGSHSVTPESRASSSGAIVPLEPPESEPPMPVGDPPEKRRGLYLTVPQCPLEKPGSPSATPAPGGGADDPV

T3 sequence (Q9UBE0 whole entry): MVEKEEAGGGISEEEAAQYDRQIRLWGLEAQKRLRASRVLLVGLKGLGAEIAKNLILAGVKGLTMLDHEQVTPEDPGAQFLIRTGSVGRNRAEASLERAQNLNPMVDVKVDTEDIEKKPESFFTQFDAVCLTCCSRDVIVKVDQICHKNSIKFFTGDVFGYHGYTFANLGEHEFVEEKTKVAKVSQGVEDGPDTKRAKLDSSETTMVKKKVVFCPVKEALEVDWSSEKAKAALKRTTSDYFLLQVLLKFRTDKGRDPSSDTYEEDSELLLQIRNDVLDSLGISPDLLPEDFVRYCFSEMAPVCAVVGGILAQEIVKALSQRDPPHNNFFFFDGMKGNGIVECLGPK
T3 sequence (Q9UBT2 whole entry): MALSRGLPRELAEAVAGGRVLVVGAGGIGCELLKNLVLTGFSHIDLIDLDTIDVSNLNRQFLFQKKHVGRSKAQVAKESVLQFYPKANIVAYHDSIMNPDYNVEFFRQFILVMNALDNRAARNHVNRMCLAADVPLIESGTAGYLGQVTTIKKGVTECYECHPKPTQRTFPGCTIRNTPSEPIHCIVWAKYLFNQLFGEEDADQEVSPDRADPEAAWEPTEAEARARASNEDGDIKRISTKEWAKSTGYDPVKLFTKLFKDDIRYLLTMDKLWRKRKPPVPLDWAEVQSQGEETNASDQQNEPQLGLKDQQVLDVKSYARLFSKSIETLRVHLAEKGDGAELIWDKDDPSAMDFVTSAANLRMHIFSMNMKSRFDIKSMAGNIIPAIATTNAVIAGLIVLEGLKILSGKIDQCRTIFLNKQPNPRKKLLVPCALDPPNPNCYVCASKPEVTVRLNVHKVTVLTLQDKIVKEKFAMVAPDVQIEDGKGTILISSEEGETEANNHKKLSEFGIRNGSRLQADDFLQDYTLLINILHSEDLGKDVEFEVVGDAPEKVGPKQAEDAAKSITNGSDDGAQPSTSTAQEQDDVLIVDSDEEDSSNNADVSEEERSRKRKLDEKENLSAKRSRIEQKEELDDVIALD
Lysine-specific demethylase 4C, sequence (Q9H3R0 whole entry): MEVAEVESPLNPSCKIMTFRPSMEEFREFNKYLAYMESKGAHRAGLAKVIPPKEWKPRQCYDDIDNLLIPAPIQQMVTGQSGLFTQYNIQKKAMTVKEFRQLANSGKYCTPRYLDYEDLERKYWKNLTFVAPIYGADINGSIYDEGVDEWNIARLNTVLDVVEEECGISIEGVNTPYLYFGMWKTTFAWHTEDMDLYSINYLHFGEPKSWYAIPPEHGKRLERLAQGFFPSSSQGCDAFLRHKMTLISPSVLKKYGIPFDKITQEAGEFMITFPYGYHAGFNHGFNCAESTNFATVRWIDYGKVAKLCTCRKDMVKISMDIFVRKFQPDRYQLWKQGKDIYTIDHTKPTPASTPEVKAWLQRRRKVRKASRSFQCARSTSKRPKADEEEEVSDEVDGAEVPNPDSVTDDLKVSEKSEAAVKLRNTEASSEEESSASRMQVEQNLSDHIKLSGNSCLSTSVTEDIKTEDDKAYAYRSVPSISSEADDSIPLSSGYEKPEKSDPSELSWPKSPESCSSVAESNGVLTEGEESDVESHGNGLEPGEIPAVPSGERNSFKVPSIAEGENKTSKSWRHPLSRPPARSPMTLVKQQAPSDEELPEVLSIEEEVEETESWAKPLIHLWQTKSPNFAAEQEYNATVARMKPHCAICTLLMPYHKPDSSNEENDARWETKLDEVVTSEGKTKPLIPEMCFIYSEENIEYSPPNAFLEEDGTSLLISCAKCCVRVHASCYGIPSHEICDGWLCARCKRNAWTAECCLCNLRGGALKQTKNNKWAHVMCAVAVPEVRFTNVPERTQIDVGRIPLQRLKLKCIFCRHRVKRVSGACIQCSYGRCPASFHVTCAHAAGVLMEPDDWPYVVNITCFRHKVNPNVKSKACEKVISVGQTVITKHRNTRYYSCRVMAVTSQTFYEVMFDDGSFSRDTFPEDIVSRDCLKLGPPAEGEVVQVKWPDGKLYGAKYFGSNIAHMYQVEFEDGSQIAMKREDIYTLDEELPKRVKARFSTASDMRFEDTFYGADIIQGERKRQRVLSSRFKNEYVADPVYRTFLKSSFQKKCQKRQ
Intestinal-type alkaline phosphatase (Mus musculus, UniProt P24822), sequence (P24822 whole entry): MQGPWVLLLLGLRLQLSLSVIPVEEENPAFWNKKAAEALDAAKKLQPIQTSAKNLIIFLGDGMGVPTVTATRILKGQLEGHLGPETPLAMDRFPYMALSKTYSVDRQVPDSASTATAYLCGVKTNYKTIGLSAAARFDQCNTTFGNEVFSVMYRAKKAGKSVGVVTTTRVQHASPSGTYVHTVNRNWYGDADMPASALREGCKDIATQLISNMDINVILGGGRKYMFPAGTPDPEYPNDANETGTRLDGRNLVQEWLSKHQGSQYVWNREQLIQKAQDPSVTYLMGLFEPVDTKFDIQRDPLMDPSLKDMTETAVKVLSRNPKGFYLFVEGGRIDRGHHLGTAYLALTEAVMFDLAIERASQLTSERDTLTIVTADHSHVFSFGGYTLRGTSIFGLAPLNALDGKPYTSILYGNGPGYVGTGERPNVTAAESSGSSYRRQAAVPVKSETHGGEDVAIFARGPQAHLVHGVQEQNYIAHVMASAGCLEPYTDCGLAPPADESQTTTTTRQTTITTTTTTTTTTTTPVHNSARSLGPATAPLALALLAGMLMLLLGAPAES

IC50 [15]: > 128 µM (inactive)
EC50 [16]: 5.56 µM (active)
EC50 [17]: 18.1 µM (active)
IC50 (SUMO E1/E2): 84.1 µM (active)
Structure (SMILES): Cc1[nH][nH]c(=O)c1C(c1ccc(-c2cccc(C(=O)O)c2)o1)c1c(C)[nH][nH]c1=O
IC50 [14]: 11.9 µM (active)
IC50 [18]: 17.8 µM (active)

AC50 [19]: 21.9 µM (active)
AC50 [20]: 11.6 µM (active)
Structure (SMILES): Cc1ccc(C)c(Cn2c(C(=O)OC(C)C)cc3c2ccn3C)c1

IC50 (NS3): 2.68 µM (active)
Structure (SMILES): COc1cc(C2C(C(=O)c3ccc(C)o3)=C(O)C(=O)N2c2cc(C)on2)ccc1OCc1ccccc1 (configuration not stated)
CC50 [22]: > 100 µM (inactive)

The remaining lines, values behind:

Structure (SMILES): CCOC(=O)C1Nc2c(OC)cccc2C2OCCCC12 (configuration not stated)
IC50 [1]: > 100 µM (inactive)
IC50 [2]: > 100 µM (not active)
IC50 [3]: > 100 µM (inactive)
IC50 [4]: > 100 µM (not active)

Structure (SMILES): NC1=NC(=O)/C(=C\c2ccco2)S1
IC50 (SUMO-activating enzyme [5]): 21.7 µM (active)
IC50 [6]: > 100 µM (inactive)
IC50 [7]: 19.8 µM (active)
IC50 (Large T antigen): 67.2 µM (active)
IC50 (SUMO-activating enzyme [8]): 2.89 µM (active)
IC50 [9]: 4.59 µM (active)

Structure (SMILES): COc1ccc(-c2nc(-c3ccc(O)cc3O)cs2)cc1OC
CC50 [10]: 74.7 µM (active)
IC50 [11]: 14.1 µM (inactive)
IC50 [12]: 55.1 µM (active)
IC50 [13]: 4.5 µM (active)

Structure (SMILES): C[C@H](NC(=O)c1nc[nH]c1C(=O)N[C@@H](C)C(=O)OCc1ccccc1)C(=O)OCc1ccccc1
IC50 [21]: > 80 µM (inactive)
IC50 (Jurkat): 73.6 µM (inactive)

Structure (SMILES): O=C(COc1ccc(F)c(Cl)c1)N[C@H]1CCCN(CC2CCCC2)C1
EC50 [23]: 10 µM (active)
